Measured values from ChEMBL document CHEMBL1158408, “Large-scale application of high-throughput molecular mechanics with Poisson-Boltzmann surface area for routine physics-based scoring of protein-ligand complexes” (J Med Chem, 2009).

What follows are compounds tested against T1, Tyrosine-protein phosphatase non-receptor type 1 (Homo sapiens, UniProt P18031).
T1 sequence (P18031 whole entry): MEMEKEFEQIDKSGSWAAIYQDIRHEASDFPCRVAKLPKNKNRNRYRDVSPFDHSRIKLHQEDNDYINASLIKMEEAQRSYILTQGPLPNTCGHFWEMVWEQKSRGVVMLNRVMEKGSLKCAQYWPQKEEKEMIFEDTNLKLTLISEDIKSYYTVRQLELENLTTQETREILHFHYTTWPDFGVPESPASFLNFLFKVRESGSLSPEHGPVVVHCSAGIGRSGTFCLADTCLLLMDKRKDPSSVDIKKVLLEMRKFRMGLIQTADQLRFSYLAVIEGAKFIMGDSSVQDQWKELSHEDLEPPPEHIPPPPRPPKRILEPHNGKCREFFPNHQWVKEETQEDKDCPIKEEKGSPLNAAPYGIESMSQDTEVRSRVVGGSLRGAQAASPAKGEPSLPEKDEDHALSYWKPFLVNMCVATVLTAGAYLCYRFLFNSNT

Row | Compound | Ki [µM]
1 | COC(=O)c1c(O)cccc1OC/C=C/c1ccc(F)c(-c2cc(C(=O)O)no2)c1 | 6.31
2 | O=C(O)C(=O)Nc1sc2c(c1C(=O)O)CCN(Cc1ccccc1)C2 | 63.1
3 | O=C(O)C(=O)Nc1sc2c(c1C(=O)O)CCNC2 | 50.1
4 | COC(=O)c1c(O)cccc1OC/C=C/c1ccc2c(c1)-c1onc(C(=O)O)c1CC2 | 12.6
5 | COC(=O)c1c(O)cccc1OC/C=C/c1cccc(-c2onc(C(=O)O)c2N)c1 | 15.8
6 | COC(=O)c1c(O)cccc1OCCNc1cccc(-c2cc(C(=O)O)no2)c1 | 50.1
7 | O=C(O)C(=O)N(c1ccccc1C(=O)O)c1ccccc1N1CCCCC1 | 15.8
8 | O=C(O)c1nc2ccccc2s1 | 1000
9 | Nc1c(C(=O)O)noc1-c1ccccc1 | 316
10 | COC(=O)c1c(O)cccc1OCCCCNC(=O)[C@@H](Cc1ccc(OCC(=O)O)c(C(=O)O)c1)NC(=O)OC(C)(C)C | 2
11 | CC(C)(C)OC(=O)Nc1ccc(O)c(-c2cc(C(=O)O)no2)c1 | 794
12 | O=C(O)/C=N/OCc1ccccc1 | 3160
13 | CC[C@H](C)[C@H](NC(=O)CCCCNC(=O)[C@@H](Cc1ccc(NC(=O)C(=O)O)c(C(=O)O)c1)NC(C)=O)C(=O)O | 20
14 | O=C(O)c1cc(-c2cccc(-c3cccc(-c4cc(C(=O)O)no4)c3)c2)on1 | 79.4
15 | O=C(O)C(=O)N(c1cc(O)ccc1C(=O)O)c1cccc2ccc(O)cc12 | 2
16 | O=C(O)C(=O)N(c1ccccc1C(=O)O)c1ccccc1N1CCCC(CO)C1 (stereo unspecified) | 20
17 | CCCCCNC(=O)C(Cc1ccc(N2CCCCC2)c(N(C(=O)C(=O)O)c2ccccc2C(=O)O)c1)NC(C)=O (stereo unspecified) | 20
18 | CC(=O)NC(Cc1ccc(N(C(=O)C(=O)O)c2ccccc2C(=O)O)c(CCO)c1)C(=O)O (stereo unspecified) | 6.31
19 | CCCCCNCc1cccc(-c2cc(C(=O)O)no2)c1 | 501
20 | O=C(O)c1ccc(O)cc1-n1c(=O)c(=O)oc2ccccc21 | 1.26

Row | Compound | Ki [µM]
21 | COC(=O)c1c(O)cccc1OCCCCNC(C)CCc1ccc(N(C(=O)C(=O)O)c2ccccc2C(=O)O)c2ccccc12 (stereo unspecified) | 0.316
22 | COC(=O)c1c(O)cccc1OCCCCCN1CCc2ccc(N(C(=O)C(=O)O)c3ccccc3C(=O)O)cc2C1 | 10
23 | COC(=O)c1c(O)cccc1OCCCCNCCCc1ccc(N(C(=O)C(=O)O)c2ccccc2C(=O)O)c2ccccc12 | 0.631
24 | CC(=O)NC(Cc1ccc(N(C(=O)C(=O)O)c2ccccc2C(=O)O)c2ccccc12)C(=O)NCCO (stereo unspecified) | 12.6
25 | CC(=O)NC(Cc1ccc(N(C(=O)C(=O)O)c2ccccc2C(=O)O)c2ccccc12)C(=O)NCCCN1CCCC1=O (stereo unspecified) | 7.94
26 | O=C(O)c1noc(-c2cccc(I)c2)c1CO | 126
27 | O=C(O)C(=O)N(c1ccccc1/C=C/CO)c1ccccc1C(=O)O | 50.1
28 | CC(=O)N1CCC(C(=O)Nc2cccc(-c3cc(C(=O)O)no3)c2)CC1 | 79.4
29 | COC(=O)c1c(O)cccc1OCCCC(=O)Nc1cccc(-c2cc(C(=O)O)no2)c1 | 251
30 | COC(=O)c1c(O)cccc1OC(CO)CCc1cc(-c2cc(C(=O)O)no2)ccc1F (stereo unspecified) | 126
31 | CNC(=O)c1c(O)cccc1OC/C=C/c1cccc(-c2cc(C(=O)O)no2)c1 | 6.31
32 | NC(=O)c1ccc2cccc(N(C(=O)C(=O)O)c3ccccc3C(=O)O)c2c1 | 3.98
33 | O=C(O)C(=O)N(c1cc([N+](=O)[O-])ccc1C(=O)O)c1cccc2ccc(O)cc12 | 7.94
34 | COc1ccc2c(c1)-c1onc(C(=O)O)c1CC2 | 631
35 | Nc1ccc(-c2cc(C(=O)O)no2)cc1 | 3160
36 | Cn1ccc2c(N(C(=O)C(=O)O)c3ccccc3C(=O)O)cccc21 | 39.8
37 | CCCCCCNC(=O)Nc1ccc(N(C(=O)C(=O)O)c2ccccc2C(=O)O)c2ccccc12 | 6.31
38 | CCc1cc(CC(NC(C)=O)C(=O)NCCCCC(=O)N[C@@H](CCSC)C(=O)O)ccc1N(C(=O)C(=O)O)c1cc(Cl)ccc1C(=O)O (stereo partly specified) | 0.0631
39 | O=C(O)C(=O)N(c1ccccc1C(=O)O)c1cccc2ccccc12 | 158

The next lines start with the values.

Row | Ki [µM] | Compound
40 | 0.0316 | CCc1cc(CC(NC(C)=O)C(=O)NCCCCOc2cccc(O)c2C(=O)O)ccc1N(C(=O)C(=O)O)c1ccccc1C(=O)O (stereo unspecified)
41 | 0.398 | CCc1cc(CC(NC(C)=O)C(=O)NCCCCC(=O)N[C@@H](CCS(C)(=O)=O)C(=O)O)ccc1N(C(=O)C(=O)O)c1ccccc1C(=O)O (stereo partly specified)
42 | 0.398 | CCCC[C@H](NC(=O)C(Cc1ccc(N(C(=O)C(=O)O)c2ccccc2C(=O)O)c2ccccc12)NC(=O)OC)C(=O)OC (stereo partly specified)
43 | 0.631 | CCc1cc(CC(NC(C)=O)C(=O)NCCCCC(=O)NC(Cc2nccs2)C(=O)O)ccc1N(C(=O)C(=O)O)c1ccccc1C(=O)O (stereo unspecified)
44 | 0.631 | CCc1cc(CC(NC(C)=O)C(=O)NCCCCC(=O)NC(Cc2ccc(Cl)cc2)C(=O)O)ccc1N(C(=O)C(=O)O)c1ccccc1C(=O)O (stereo unspecified)
45 | 0.316 | CCCCCNC(=O)[C@@H](Cc1ccc(N(C(=O)C(=O)O)c2ccccc2C(=O)O)c(/C=C/C(N)=O)c1)NC(=O)NC(C)C
46 | 0.158 | CCc1cc(CC(NC(C)=O)C(=O)NCCCCC(=O)N[C@@H](Cc2ccc(O)cc2)C(=O)O)ccc1N(C(=O)C(=O)O)c1ccccc1C(=O)O (stereo partly specified)
47 | 5.01 | COC(=O)c1c(O)cccc1OCCCCNC(=O)C(Cc1ccc(N(CC(Cc2ccccc2)C(=O)O)C(=O)C(=O)O)cc1)NC(=O)OC(C)(C)C (stereo unspecified)
48 | 1.26 | CCCCCNC(=O)[C@H](Cc1ccc(N(C(=O)C(=O)O)c2ccccc2C(=O)O)cc1)NC(=O)[C@H](Cc1ccc(C(=O)c2ccccc2)cc1)NC(=O)OC(C)(C)C
49 | 1.58 | CCC(CN(C(=O)C(=O)O)c1ccc(CC(NC(=O)OC(C)(C)C)C(=O)NCCCCOc2cccc(O)c2C(=O)OC)cc1)C(=O)O (stereo unspecified)
50 | 3.98 | COC(=O)N[C@H](Cc1ccc(N(C(=O)C(=O)O)c2ccccc2C(=O)O)cc1)C(=O)NCCCCOc1cc(OC(C)C)cc(O)c1C(=O)OC
51 | 1 | COC(=O)N[C@H](Cc1ccc(N(C(=O)C(=O)O)c2ccccc2C(=O)O)cc1)C(=O)NCCCCOc1cc(-c2ccccc2)cc(O)c1C(=O)OC
52 | 0.398 | CCc1cc(CC(NC(C)=O)C(=O)NCCCCC(=O)NC(Cc2cccs2)C(=O)O)ccc1N(C(=O)C(=O)O)c1ccccc1C(=O)O (stereo unspecified)
53 | 0.0631 | CCc1cc(CC(NC(C)=O)C(=O)NCCCCC(=O)N[C@@H](CCSC)C(=O)O)ccc1N(C(=O)C(=O)O)c1ccccc1C(=O)O (stereo partly specified)
54 | 7.94 | COCCC(CN(C(=O)C(=O)O)c1ccc(CC(NC(=O)OC(C)(C)C)C(=O)NCCCCOc2cccc(O)c2C(=O)OC)cc1)C(=O)O (stereo unspecified)
55 | 0.251 | CCc1cc(CC(NC(C)=O)C(=O)NCCCCC(=O)NC(C(=O)O)c2c[nH]c3ccccc23)ccc1N(C(=O)C(=O)O)c1ccccc1C(=O)O (stereo unspecified)
56 | 0.398 | C=CCOC(=O)N[C@@H](Cc1ccc(N(C(=O)C(=O)O)c2ccccc2C(=O)O)cc1)C(=O)NCCOCCOc1cccc(O)c1C(=O)OC
57 | 10 | CN(C(=O)[C@@H](Cc1ccc(N(C(=O)C(=O)O)c2ccccc2C(=O)O)cc1)NC(=O)OC(C)(C)C)C1CCC(C(=O)O)CC1 (stereo partly specified)
58 | 0.126 | CCc1cc(CC(NC(C)=O)C(=O)NCCCCC(=O)N[C@@H](Cc2ccccc2)C(=O)O)ccc1N(C(=O)C(=O)O)c1ccccc1C(=O)O (stereo partly specified)
59 | 2 | CCc1cc(CC(NC(C)=O)C(=O)NCCCCC(=O)N2CCC[C@@H]2C(=O)O)ccc1N(C(=O)C(=O)O)c1ccccc1C(=O)O (stereo partly specified)
60 | 3.98 | CC[C@H](C)[C@H](NC(=O)CCCCNC(=O)[C@@H](Cc1ccc(N(C(=O)C(=O)O)c2ccccc2C(=O)O)cc1)NC(C)=O)C(=O)O
61 | 0.631 | CCc1cc(CC(NC(C)=O)C(=O)NCCCCC(=O)N[C@@H](CSCc2ccccc2)C(=O)O)ccc1N(C(=O)C(=O)O)c1ccccc1C(=O)O (stereo partly specified)
